Where two headings read alike, the source gives them in different places.
Tests used:
DENV2 = assay: microbe, parasite or virus in culture; type: cell-based, dengue virus; settings: for anti-DENV activity in words / inhibition at 10 µM / DENV2 % Inhibition at 10 μM: 10 μM; for anti-DENV activity in words: >32% inhibition of DENV-2 at 10 μM considered as active; for inhibition at 1 µM / inhibition at 10 µM / EC50: Dengue virus; for inhibition at 1 µM / inhibition at 10 µM: DENV2, 72 h; for inhibition at 1 µM / inhibition at 10 µM / DENV2 % Inhibition at 10 μM: Huh-7-DV-Fluc cells, three days; for SI (selectivity index, CC50/EC50): CC50 Huh-7 / EC50 DENV
Method: Anti-DENV activities were determined by firefly luciferase activity.
Huh-7-DV-Fluc cells were seeded in 24-well plates at a density of 2 × 10^4 cells per well, and treated with the 3-arylquinoxaline compounds at two concentrations (1 and 10 μM) or 0.1% DMSO as control. After three days of incubation, the luciferase activity assay was performed using the Bright-Glo Luciferase assay system (Promega, Madison, WI, USA) according to the manufacturer’s instructions.

[1] = Cytotoxicity assay (XTT method); type: cell-based, Human; settings: human, mean ± SD; for viability at 72 h, 20 µM / viability at 72 h, 200 µM: Huh-7 cells, XTT; for viability at 72 h, 20 µM: read-out: Huh-7 Cell % viability at 20 μM; for viability at 72 h, 200 µM: read-out: Huh-7 Cell % viability at 200 μM; for CC50 at 72 h: uninfected Huh-7 cells, read-out: CC50 (concentration causing a 50% growth inhibition of uninfected Huh-7 cells)
Method: For cytotoxicity tests, run in parallel with antiviral assays, plates at an initial density of 5 × 10^3 cells/well were treated with or without serial dilutions of test compounds. Cell viability was determined after 72 h at 37 °C in a humidified CO2 (5%) atmosphere by the (2,3-bis[2-methyloxy-4-nitro-5-sulfophenyl]-2H-tetrazolium-5-carboxanilide) (XTT) method.

[2] = DENV2, DENV replication, mean ± SD, read-out: EC50 (concentration resulting in a 50% inhibition in virus production)

Compound | anti-DENV activity in words (DENV2) | inhibition at 1 µM (DENV2; mean ± SD) [%] | inhibition at 10 µM (DENV2; mean ± SD) [%] | viability at 72 h, 20 µM [1] [%] | viability at 72 h, 200 µM [1] [%] | SI (selectivity index, CC50/EC50) (DENV2) | EC50 (DENV2; [2]) [µM] | CC50 at 72 h [1] [µM] | DENV2 % Inhibition at 10 μM (DENV2; mean ± SD) [%] | melting point [°C] | EC50 (DENV2; DENV2, read-out: EC50 (concentration resulting in a 50% inhibition in virus production)) [µM]
O=C(c1ccccc1)c1nc2ccccc2nc1-c1ccccc1 [Compound 21a, Phenyl(3-phenylquinoxalin-2-yl)methanone] | inactive | 2.76 ± 1.55 | 7.98 ± 2.14 | 107 ± 2.3 | 79.5 ± 7.07 |  |  |  |  |  | 
O=C(c1ccc(O)cc1)c1nc2ccccc2cc1-c1ccc(O)cc1 [Compound 4, 2-(4-hydroxybenzoyl)-3-(4-hydroxyphenyl)quinoline, reference compound] |  | 11.2 ± 2.31 | 41.2 ± 2.88 | 96.6 ± 8.78 | 41.4 ± 5.71 | 12.44 | 13.2 ± 1.23 | 164 ± 2.32 |  |  | 
COc1ccc(C(O)c2nc3ccccc3nc2-c2ccccc2)cc1 (stereo not drawn) [Compound 15b, (4-Methoxyphenyl)(3-phenylquinoxalin-2-yl)methanol] | moderately active | 24.3 ± 2.51 | 48 | 103 ± 1.79 | 61.4 ± 2.67 |  |  |  | 48.67 ± 4.71 | 166 to 168.6 | 
COc1ccc(C(=O)c2nc3cc(Cl)c(Cl)cc3nc2-c2ccc(OC)cc2)cc1 [Compound 26b, [6,7-Dichloro-3-(4-methoxyphenyl)quinoxalin-2-yl](4-methoxyphenyl)methanone] | inactive | 1.17 ± 0.41 | 19.3 ± 3.85 | 104 ± 4.22 | 99.1 ± 2.4 |  |  |  |  | 178.8 to 179 | 
OC(c1ccccc1)c1nc2ccccc2nc1-c1ccc(F)cc1 (stereo not drawn) [Compound 17a, [3-(4-Fluorophenyl)quinoxalin-2-yl](phenyl)methanol] |  | 2.58 ± 0.85 | 4.78 ± 1.93 | 96.3 ± 3.52 | 73.3 ± 6.57 |  |  |  |  | 157.4 to 158 | 
COc1ccc(-c2cc3ccccc3nc2C(O)c2ccccc2)cc1 (stereo not drawn) [Compound 3, 2-(hydroxyphenylmethyl)-3-(4-methoxyphenyl)quinoline, reference compound] |  | 12.4 ± 2.67 | 50.1 ± 3.47 | 90.3 ± 2.62 | 21.9 ± 3.55 | 11.07 | 12.6 ± 2.16 | 139 ± 2.32 |  |  | 
OC(c1ccccc1)c1nc2ccccc2nc1-c1ccccc1 (stereo not drawn) [Compound 15a, Phenyl(3-phenylquinoxalin-2-yl)methanol] | inactive | 2.13 ± 1.12 | 5.31 ± 1.73 | 105 ± 5.66 | 59.9 ± 8.33 |  |  |  |  | 146 to 147 | 
OC(c1ccccc1)c1nc2cc(Cl)c(Cl)cc2nc1-c1ccc(F)cc1 (stereo not drawn) [Compound 18a, [6,7-Dichloro-3-(4-fluorophenyl)quinoxalin-2-yl](phenyl)methanol] |  | 3.41 ± 1.11 | 6.74 ± 1.57 | 102 ± 3.96 | 21.5 ± 1.6 |  |  |  |  | 150 to 150.2 | 
O=C(c1ccc(O)cc1)c1nc2ccccc2nc1-c1ccccc1 [Compound 27, (4-Hydroxyphenyl)(3-phenylquinoxalin-2-yl)methanone] |  | 44.9 ± 3.68 | 48.7 ± 3.48 | 102 ± 2.84 | 18.4 ± 2.33 |  |  |  |  | 196.5 to 199.3 | 
COc1ccc(-c2nc3cc(Cl)c(Cl)cc3nc2C(O)c2ccccc2)cc1 (stereo not drawn) [Compound 20a, [6,7-Dichloro-3-(4-methoxyphenyl)quinoxalin-2-yl](phenyl)methanol] |  | 16.3 ± 3.42 | > 50 | 99.4 ± 3.31 | 27.1 ± 1.24 | >35.21 |  | > 200 | 58.71 ± 2.86 | 156.8 to 157.1 | 5.68 ± 0.81
COc1ccc(C(O)c2nc3ccccc3nc2-c2ccc(F)cc2)cc1 (stereo not drawn) [Compound 17b, [3-(4-Fluorophenyl)quinoxalin-2-yl](4-methoxyphenyl)methanol] |  | 19.2 ± 3.5 | 22 | 102 ± 1.98 | 101 ± 1.27 |  |  |  | 22.89 ± 4.54 | 173 to 174.7 | 
O=C(c1ccccc1)c1nc2cc(Cl)c(Cl)cc2nc1-c1ccccc1 [Compound 22a, (6,7-Dichloro-3-phenylquinoxalin-2-yl)(phenyl)methanone] |  | 12.7 ± 3.91 | 19.7 ± 4.17 | 109 ± 1.36 | 103 ± 2.67 |  |  |  |  | 154.3 to 156.8 | 
COc1ccc(-c2nc3cc(Cl)c(Cl)cc3nc2C(O)c2ccc(OC)cc2)cc1 (stereo not drawn) [Compound 20b, [6,7-Dichloro-3-(4-methoxyphenyl)quinoxalin-2-yl](4-methoxyphenyl)methanol] | inactive | 2.75 ± 1.69 | 4.39 ± 1.52 | 95.5 ± 3.96 | 34.2 ± 4.97 |  |  |  |  | 144.1 to 144.5 | 
COc1ccc(C(=O)c2nc3ccccc3nc2-c2ccc(F)cc2)cc1 [Compound 23b, [3-(4-Fluorophenyl)quinoxalin-2-yl](4-methoxyphenyl)methanone] |  | 16.4 ± 3.11 | 33.6 ± 4.21 | 104 ± 1.85 | 103.3 ± 1.03 |  |  |  |  | 147.6 to 147.9 | 
O=C(c1ccccc1)c1nc2cc(Cl)c(Cl)cc2nc1-c1ccc(F)cc1 [Compound 24a, (6,7-Dichloro-3-(4-fluorophenyl)quinoxalin-2-yl)(phenyl)methanone] |  | 2.54 ± 1.21 | 23.5 ± 3.71 | 106 ± 2.12 | 91.9 ± 2.83 |  |  |  |  | 184.3 to 186.4 | 
COc1ccc(C(=O)c2nc3cc(Cl)c(Cl)cc3nc2-c2ccccc2)cc1 [Compound 22b, (6,7-Dichloro-3-phenylquinoxalin-2-yl)(4-methoxyphenyl)methanone] |  | 5.19 ± 2.78 | 24.7 ± 1.89 | 103 ± 8.3 | 92 ± 3.08 |  |  |  |  | 171.9 to 172.3 | 
COc1ccc(C(O)c2nc3cc(Cl)c(Cl)cc3nc2-c2ccccc2)cc1 (stereo not drawn) [Compound 16b, (6,7-Dichloro-3-phenylquinoxalin-2-yl)(4-methoxyphenyl)methanol] | inactive | 2.41 ± 1.48 | 9 | 104 ± 4.18 | 73 ± 9.05 |  |  |  | 9.46 ± 2.88 | 157.2 to 157.6 | 
O=C(c1ccccc1)c1nc2ccccc2nc1-c1ccc(F)cc1 [Compound 23a, [3-(4-Fluorophenyl)quinoxalin-2-yl](phenyl)methanone] |  | 34.2 ± 5.12 | 40.8 ± 2.58 | 98.6 ± 5.68 | 87.6 ± 5.75 |  |  |  |  | 94.1 to 96.6 | 
O=C(c1ccc(O)cc1)c1nc2ccccc2nc1-c1ccc(O)cc1 [Compound 29, (4-Hydroxyphenyl)(3-(4-hydroxyphenyl)quinoxalin-2-yl)methanone] |  | 2.36 ± 1.11 | 4.25 ± 1.39 | 104 ± 2.91 | 51.9 ± 1.62 |  |  |  |  |  | 
Oc1ccc(Cc2nc3ccccc3nc2-c2ccc(O)cc2)cc1 |  |  |  |  |  |  |  |  |  | 184.8 to 185.9 | 

Reference: PMC6801405, “Discovery of 3-Arylquinoxaline Derivatives as Potential Anti-Dengue Virus Agents” (International Journal of Molecular Sciences, 2019)
